Results taken from patent US6551999B1, “Angiogenesis inhibitor” (Senju Pharmaceutical Co., Ltd., priority 1995, dated 2003).
Ends that are not written are not given here.

Experiments:
μ-calpain = biological target: T1, μ-calpain (Homo sapiens, UniProt P07384); assay: μ-Calpain-inhibitory activity (casein substrate); assay type: biochemical; details: 60 minutes at 30° C., pH 7.4, 4 mM calcium chloride
T1 construct: purchased Nakalai Tesque
T1 sequence (P07384 1-714): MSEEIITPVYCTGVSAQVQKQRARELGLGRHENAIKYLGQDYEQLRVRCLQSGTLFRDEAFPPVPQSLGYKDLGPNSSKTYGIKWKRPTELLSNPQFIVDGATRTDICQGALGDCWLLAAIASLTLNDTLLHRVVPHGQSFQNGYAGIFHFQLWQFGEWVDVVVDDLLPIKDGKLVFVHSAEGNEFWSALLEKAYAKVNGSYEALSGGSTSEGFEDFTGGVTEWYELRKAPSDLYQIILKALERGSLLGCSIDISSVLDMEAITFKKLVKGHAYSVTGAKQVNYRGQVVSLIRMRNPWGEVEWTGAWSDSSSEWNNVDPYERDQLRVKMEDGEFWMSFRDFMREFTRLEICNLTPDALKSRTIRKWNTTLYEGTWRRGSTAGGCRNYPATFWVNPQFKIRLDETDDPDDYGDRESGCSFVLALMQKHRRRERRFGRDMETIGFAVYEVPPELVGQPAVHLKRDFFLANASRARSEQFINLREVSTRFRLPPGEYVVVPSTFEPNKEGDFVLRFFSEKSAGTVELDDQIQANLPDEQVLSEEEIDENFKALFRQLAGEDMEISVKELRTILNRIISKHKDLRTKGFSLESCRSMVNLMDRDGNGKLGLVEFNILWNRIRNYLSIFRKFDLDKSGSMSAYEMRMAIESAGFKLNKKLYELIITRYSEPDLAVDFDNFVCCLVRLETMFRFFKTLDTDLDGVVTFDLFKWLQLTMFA
T1 sequence (P04632 1-268 partner): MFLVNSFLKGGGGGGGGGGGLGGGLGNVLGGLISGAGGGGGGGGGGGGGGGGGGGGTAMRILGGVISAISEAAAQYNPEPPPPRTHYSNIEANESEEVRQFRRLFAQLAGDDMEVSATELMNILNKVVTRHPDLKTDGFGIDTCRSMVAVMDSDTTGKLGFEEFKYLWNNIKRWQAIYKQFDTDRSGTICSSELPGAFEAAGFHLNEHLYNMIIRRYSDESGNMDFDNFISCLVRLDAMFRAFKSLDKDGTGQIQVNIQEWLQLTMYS
Protocol: Thus, to a solution containing 0.5 mg/ml casein, 50 mM Tris-HCl (pH 7.4), 20 mM dithiothreitol, and 4 mM calcium chloride was added 2.5 μl of a dimethyl sulfoxide solution containing a varying concentration of the test drug as well as 0.03 unit of μcalpain to initiate the reaction. The final liquid volume was 250 μl. After 60 minutes of reaction at 30° C., 100 μl of the reaction mixture was transferred to another vessel, to which 50 μl of purified water and 100 μl of 50% Coumassie brilliant blue solution were added. […] As a control, 2.5 μl of dimethyl sulfoxide not containing the test drug was added and the mixture was treated in the same manner as above. […] Similarly, the value found by adding 0.2 mM EDTA in lieu of 4 mM aqueous calcium chloride solution was used as the blank value. […] [formula]

[1] = test system: angiogenesis in cornea of guinea pig; assay: Angiogenesis in cornea of guinea pig by transplantation of bFGF-containing pellet; assay type: in vivo; details: 9 days posttransplantation; for Observation of cornea with a slit lamp: appearance of newly formed blood vessels compared to the control group: test pellet (27 mer calpastatin peptide 0.03 and 0.1 μmole, leupeptin 0.1 μmole) together with bFGF (500 ng) pellet; for Wet weight of cornea compared to the control group / Amount of albumin in cornea compared to the control group: test pellet together with bFGF pellet; for Amount of albumin in cornea compared to the control group: SDS-PAGE image analysis
Protocol: (1) Method for Preparing Pellets for Transplantation
A solution (5 μl) of 8% ethylene vinyl acetate copolymer (EVA) in dichloromethane was dropped on a plate made of Tefron, air-dried, and 0.0167 w/v % bFGF (3 μl) was dropped thereon and air-dried. After drying, the obtained product was rounded into a small rod to give a bFGF (500 ng)-containing pellet.
Using a test solution instead of 0.0167 w/v % bFGF, a test solution-containing pellet was prepared in the same manner as above. The test solution-containing pellets were prepared to contain 27 mer calpastatin peptide (0.03 μmole and 0.1 μmule/pellet, Sigma) and leupeptin (0.1 μmole/pellet, PEPTIDE […], INC.).
As a control, a pellet made of EVA alone was prepared and used as a vehicle pellet.
(2) Transplantation of Pellet into Cornea of Guinea Pig
The procedure followed the method of M. Kusaka et al. [Biochem. Biophys. Res. Comm., vol. 174, pp. 1070-1076 (1991)]. That is, male guinea pigs weighing 300-400 g were anesthetized with a 1:1 mixture of Ketalar 50 (ketamin hydrochloride, Sankyo Company, Limited) and Celactal (xylazine hydrochloride, Bayer, Ltd.). A pocket was formed in the intercellular layer of corneal stroma layer of both eyes from corneal limbus to the center of cornea, using a 0.5 mm width ophthalmic spatula. A test solution-containing pellet was inserted into the pocked thus formed, and a bFGF-containing pellet was inserted in adjacency thereto. For prevention of infection, ofloxacin eye ointment [Tarivid eye ointment (ofloxacin 0.3%, manufactured by Santen Pharmaceutical Co., Ltd.) was instilled once immediately after insertion of the pellets. Thereafter, 0.3% lomefloxacin (lomeflon ophthalmic otologic solution, manufactured by Senju Pharmaceutical Co., Ltd.) was instilled once a day for 5 days.
(3) Evaluation of the Effects of Cysteine Protease Inhibitor
The blood vessel newly formed in cornea which is an avascular tissue had high permeability, and the wet weight and plasma content were expected to elevate due to incurrent of plasma components as a result of high permeability. At 9 days posttransplantation of pellet, guinea pigs were euthanized and cornea was collected. The obtained cornea was weighed (wet weight). Then, it was homogenized, and subjected to centrifugation. The obtained water soluble protein was separated by SDS polyacrylamide gel electrophoresis. After electrophoresis, the gel was stained with Coomassie Brilliant Blue. By image analysis (NIH Image 1.31), albumin which is one of the major proteins in plasma was quantitatively assayed. As the standard substance, guinea pig serum albumin was used.

| Compound | IC50 (μ-calpain) | Observation of cornea with a slit lamp: appearance of newly formed blood vessels compared to the control group [1] | Wet weight of cornea compared to the control group [1] | Amount of albumin in cornea compared to the control group [1] |
| --- | --- | --- | --- | --- |
| CC(C)(C)[C@H](NS(=O)(=O)c1ccc2ccccc2c1)C(=O)N[C@H](C=O)Cc1c[nH]c2ccccc12 [Compound 51, N-(2-naphthalenesulfonyl)-L-tert-leucyl-L-tryptophanal] | 1100 nM | – | – | – |
| CC(C)[C@H](NS(=O)(=O)c1ccc(F)cc1)C(=O)NC(C=O)CC1CCCCC1 (stereo partly drawn) [Compound 52, N-(4-fluorophenylsulfonyl)-L-valyl-L-cyclohexylalaninal] | 30 nM | – | – | – |
| CC(C)[C@H](NS(=O)(=O)c1ccc2ccccc2c1)C(=O)NC(C=O)CC1CCCCC1 (stereo partly drawn) [Compound 53, N-(2-naphthalenesulfonyl)-L-valyl-L-cyclohexylalaninal] | 8.3 nM | – | – | – |
| CC(C)[C@H](NS(=O)(=O)c1ccc(Cl)cc1)C(=O)NC(C=O)CC1CCCCC1 (stereo partly drawn) [Compound 54, N-(4-chlorophenylsulfonyl)-L-valyl-L-cyclohexylalaninal] | 14 nM | – | – | – |
| CC(=O)N[C@@H](CC(C)C)C(=O)N[C@@H](CC(C)C)C(=O)N[C@H](C=O)CCCNC(=N)N [leupeptin] | – | the degree of appearance was mild | suppressed increase in the wet weight of cornea | suppressed increase in the amount of albumin in cornea |
| DPMSSTYIEELGKREVTIPPKYRELLA [27 mer calpastatin peptide, from Sigma] | – | the degree of appearance was mild | suppressed increase in the wet weight of cornea | suppressed increase in the amount of albumin in cornea |
